What was measured:
[1] = tested on: T. cruzi intracellular amastigotes in H9c2 cells; assay: Rate-of-Kill (RoK) high-content imaging assay, amastigotes per cell (AM/CELL) and curve descriptors; type: cell-based, Trypanosoma cruzi; set-up: key to ME_24h / ME_48h / ME_72h: % reduction in parasite burden (cidal response); t50pct_MCC50 / t50pct_Cmax: unit not given here; details: for ME_24h: 24h; for ME_48h: 48h; for ME_72h: 72h; for t50%_Cmax / tlag_Cmax / t50pct_Cmax: at Cmax; for ME_24h (%): maximum effect at 24 h; for ME_24h (%) / ME_48h (%) / ME_72h (%): RoK assay; for ME_48h (%): maximum effect at 48 h; for ME_72h (%): maximum effect at 72 h; for ME 24h (maximum effect at 24 hours, intracellular amastigotes): maximum percentage of parasite burden reduction reached by any concentration
In short: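 Readouts at each time point are amastigotes per cell and host nuclei count (cytotoxicity), from DRAQ5 high-content imaging. Infection: trypomastigotes on H9c2 at MOI 8 for 18 h. Dosing was 5 μM single point or 11 points, 1/3 steps from 50 μM. Effect scaled between 4 h infected and uninfected controls.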

[2] = tested on: TcCYP51; details: formerly reported; cited from earlier work

## Fc1ccc(OC2CC(NCc3cccc4cn[nH]c34)C2)cc1C(F)(F)F (stereo not drawn) [TCMDC-143455]
[1]; figure 5
  ME_24h: 25.577
  ME_48h: 44.8387
  ME_72h: 61.893
  t50pct_Cmax: 72
  tlag_Cmax: 24
  MCCE: 0.2058
[1]; RoK curve descriptor
  MCC50: 5.6 µM
  MCCE: 0.2 µM
[1]; Time 4, figure 4 A
  AM/CELL NORM: 30.3216
[1]; Time 24, figure 4 A
  AM/CELL NORM: 25.577
[1]; Time 48, figure 4 A
  AM/CELL NORM: 44.8387
[1]; Time 72, figure 4 A
  AM/CELL NORM: 61.893
[1]
  t50%_Cmax: 72.0 h
  tlag_Cmax: 24.0 h
  ME_24h (%): 25.6%
  ME_48h (%): 44.8%
  ME_72h (%): 61.9%
  ME 24h (maximum effect at 24 hours, intracellular amastigotes): 107.523%
[1]; at MCC50
  t50%_MCC50: 72.0 h
  tlag_MCC50: 24.0 h
[1]; at MCC50, figure 5
  t50pct_MCC50: 72
  tlag_MCC50: 24
[1]; figure 5, in µM
  MCC50: 5.556
[2]
  CYP51 pIC50: 6.9

## Cn1cncc1CN1CCC2(CC1)COC(Cc1ccccc1)C2 (stereo not drawn) [TCMDC-143502]
[1]; figure 5
  ME_24h: -3.518
  ME_48h: 29.7799
  ME_72h: 64.8887
  t50pct_Cmax: 72
  tlag_Cmax: 48
  MCCE: 1.852
[1]; RoK curve descriptor
  MCC50: 5.6 µM
  MCCE: 1.9 µM
[1]; Time 4, sheet figure 4 A
  AM/CELL NORM: 12.5806
[1]; Time 24, sheet figure 4 A
  AM/CELL NORM: -3.518
[1]; Time 48, sheet figure 4 A
  AM/CELL NORM: -12.3342
[1]; Time 72, sheet figure 4 A
  AM/CELL NORM: 16.2947
[1]
  tlag_Cmax: 48.0 h
  ME_24h (%): -3.5%
  ME_48h (%): 29.8%
  ME_72h (%): 64.9%
  ME 24h (maximum effect at 24 hours, intracellular amastigotes): -3.518%
[1]; at MCC50
  t50%_MCC50: 72.0 h
  tlag_MCC50: 24.0 h
[1]; at MCC50, figure 5
  t50pct_MCC50: 72
  tlag_MCC50: 24
[1]; figure 5, in µM
  MCC50: 5.556
[2]
  CYP51 pIC50: 6

## CC(C)Oc1cccc(N2CCC(C(=O)N3CCCN(C(C)C)CC3)CC2)c1.Cl [TCMDC-143432]
[1]; figure 5
  ME_24h: -31.9347
  ME_48h: 48.3783
  ME_72h: 79.9841
  t50pct_Cmax: 60
  tlag_Cmax: 24
  MCCE: 1.235
[1]; RoK curve descriptor
  MCC50: 1.9 µM
  MCCE: 1.2 µM
[1]; Time 4, sheet figure 4 A
  AM/CELL NORM: -8.446
[1]; Time 24, sheet figure 4 A
  AM/CELL NORM: -20.4309
[1]; Time 48, sheet figure 4 A
  AM/CELL NORM: 59.253
[1]; Time 72, sheet figure 4 A
  AM/CELL NORM: 56.8532
[1]
  t50%_Cmax: 60.0 h
  tlag_Cmax: 24.0 h
  ME_24h (%): -31.9%
  ME_48h (%): 48.4%
  ME_72h (%): 80.0%
  ME 24h (maximum effect at 24 hours, intracellular amastigotes): -15.8852%
[1]; at MCC50
  t50%_MCC50: 72.0 h
  tlag_MCC50: 24.0 h
[1]; at MCC50, figure 5
  t50pct_MCC50: 72
  tlag_MCC50: 24
[1]; figure 5, in µM
  MCC50: 1.852
[2]
  CYP51 pIC50: < 4

## CCN(Cc1ccncc1)Cc1ccc(NC(=O)c2cc(-c3ccc(F)cc3)n[nH]2)cc1 [TCMDC-143433]
[1]; figure 5
  ME_24h: -248.551
  ME_48h: -140.579
  ME_72h: 30.4902
  t50pct_Cmax: 72
  tlag_Cmax: 24
  MCC50: 50 µM
  MCCE: 0.2058
[1]; RoK curve descriptor
  MCCE: 0.2 µM
[1]; Time 4, sheet figure 4 A
  AM/CELL NORM: 7.09
[1]; Time 24, sheet figure 4 A
  AM/CELL NORM: -279.989
[1]; Time 48, sheet figure 4 A
  AM/CELL NORM: -140.579
[1]; Time 72, sheet figure 4 A
  AM/CELL NORM: 25.9601
[1]
  tlag_Cmax: 24.0 h
  ME_24h (%): -248.6%
  ME_48h (%): -140.6%
  ME_72h (%): 30.5%
  ME 24h (maximum effect at 24 hours, intracellular amastigotes): -248.551%
[1]; at MCC50, figure 5
  t50pct_MCC50: 72
  tlag_MCC50: 72
[2]
  CYP51 pIC50: 7.1

## CNc1c(C(N)=O)c(-c2ccc3scnc3c2)nn1CC(F)(F)F.O=C(O)C(F)(F)F [TCMDC-143463]
[1]; figure 5
  ME_24h: -5.4236
  ME_48h: -24.264
  ME_72h: 4.63
  t50pct_Cmax: 72
  tlag_Cmax: 48
  MCC50: 50 µM
  MCCE: 0.2058
[1]; RoK curve descriptor
  MCCE: 0.2 µM
[1]; Time 4, sheet figure 4 A
  AM/CELL NORM: 20.0861
[1]; Time 24, sheet figure 4 A
  AM/CELL NORM: -5.743
[1]; Time 48, sheet figure 4 A
  AM/CELL NORM: -19.2942
[1]; Time 72, sheet figure 4 A
  AM/CELL NORM: 13.2045
[1]
  tlag_Cmax: 48.0 h
  ME_24h (%): -5.4%
  ME_48h (%): -24.3%
  ME_72h (%): 4.6%
  ME 24h (maximum effect at 24 hours, intracellular amastigotes): -5.104%
[1]; at MCC50, figure 5
  t50pct_MCC50: 72
  tlag_MCC50: 72
[2]
  CYP51 pIC50: < 4

— PMC8318231, “Rate-of-Kill (RoK) assays to triage large compound sets for Chagas disease drug discovery: Application to GSK Chagas Box” (PLoS Neglected Tropical Diseases, 2021)
